In patent EP3375430A1, “FRAGRANCE COMPOSITIONS” (Takasago International Corporation, priority 2017, dated 2018):

What was measured:
[1] = Headspace concentration of fragrance ingredients over blotter (thermal desorption GC-MS); format: physicochemical; conditions: fragrance TAK; T0 + 8h; Figure 4
Description: The headspace concentration of individual ingredients of fragrance TAK, as formulated in either a conventional EdT (EdT1) or a fragrance composition of the invention (C1), was assessed by the method described below.
A 10 cm length was cut from a standard perfumers' blotter. A sample of 100µL volume was applied to the upper surface of the blotter with a syringe. The blotter was placed on a hot plate thermostatted at 32°C and left to equilibrate for 5 minutes. Two desorption tubes (6cm length 4mm internal diameter) each containing 2 cm length of Tenax TA adsorbent were fitted to the glass part of a headspace apparatus shown in figure 9. The glass part was fitted over the blotter, a metering pump was connected to one of the desorption tubes and air was drawn through the apparatus flushing the headspace over the blotter at a rate of 17mL/min. Sampling continued for about 16.5 minutes until 280mL of air had been extracted. Then the outlet desorption tube was analysed by gas chromatography as described below. The glass part was removed from the blotter which was left on the hotplate until the next sampling time when two fresh desorption tubes were fitted and the extraction procedure repeated for a further 280mL of extracted headspace.
• Initial Temp: 50°C • Initial Time: 5 min • Rate: 3°C /min • Final Temp: 250°C • Final Time: 20 min • Run Time: 91.67 min
• Column: HP-5MS 30m * 0.25mm * 0.25µm • Gas: Helium • Constant pressure 12.675 psi
• Initial Temp: -30°C • Equilibration Time: 0.05 min • Initial Time: 0.00 min • Rate 12°C / min • End Temp: 260°C • Hold Time: 10 min
Temperature program • Initial Temp: 35°C • Delay Time: 0.30 min • Initial Time: 0.00 min • Rate: 30°C / min • End Temp: 250°C • Hold Time: 5.00 min
TDU Settings • Transfer Temp: 250°C • Transfer Temp Mode: Fixed • Desorption Mode: splitless • Sample mode: Retain tube - standby cooling • Standby Temp: 50°C
Detector MS • MS 5973 • Mass range: 35 to 350 • Threshold: 150 • Mass Quad: 150°C • Mass Source: 230°C
Following the procedure of example 2, the headspace concentration of representative ingredients of fragrance COM1 was determined. COM1 was dosed at 5 and 20 % either in control EdT3 and EdT4 or in compositions of the invention C7 and C8, as shown in table 10.
The headspace concentration of individual ingredients of fragrance TAK (see Table 1), as formulated in either a conventional EdT (EdT1) or fragrance compositions of the invention (C14, C15), was assessed by the method described in example 2.

[2] = Amount of fragrance ingredients retained on paper blotter after evaporation (ethanol extraction, GC-MS); format: physicochemical
Description: A fragrance (hereafter fragrance TAK, the formulation of which is shown in table 1) was formulated in a typical Eau de Toilette (EdT1) or in fragrance compositions according to the invention (compositions C1 to C4), as shown in table 2. The amount of individual fragrance ingredients retained on paper substrate (blotter) after set time periods was assessed by the following method.
100µL samples of either EdT1 or compositions C1 to C4 were applied to 4.5cm long standard paper blotters with a microsyringe. Three replicate blotters were prepared for each extraction time. After the appropriate evaporation time each of the 3 blotters was transferred to a 30mL glass bottle. 3mL of ethanol and 50µL of a 1% solution of methyl decanoate in ethanol as an internal standard were added. The bottle was sealed and placed on a roller bed to extract the blotter for 1 hour. A sample of the extracting solution was transferred to a vial which was sealed and analysed by gas chromatography (GC 6890) with a Mass Spectrometer detector (MS 5973) using the method described below. The results of the three replicate measurements were averaged. At exact times the same extraction was repeated on the remaining blotters which were stored on a warm surface at 32°C open to the air to allow evaporation. The gas chromatography conditions were as given below.
• Initial Temp: 50°C • Initial Time: 2 min • Rate: 10°C /min • Final Temp: 280°C • Final Time: 5 min • Run Time: 30 min
• Column: HP-5MS 30m * 0.25mm * 0.25µm • Gas: Helium • Constant Pressure 18.55 psi
• Split mode Ratio 40:1 • Inlet Temp: 250°C
• MS 5973 • Mass range: 35 to 350 • Threshold: 100 • Mass Quad: 150°C • Mass Source: 230°C
To simplify the results the average amount of each fragrance ingredient from the 3 samples measured at time zero was set at 100% and all other measurements were then related to that value so tables 3 to 6 show decreasing amounts of fragrance ingredients as a percentage of the initial amount.
The method of example 1 was repeated using a commercial fragrance (hereafter fragrance COM1, the formulation of which is given in table 7) formulated in a typical Eau de Toilette (EdT2) or in fragrance compositions according to the invention (compositions C5 and C6), as shown in table 8.

## CC/C=C\CCOC(=O)c1ccccc1O [Cis 3-hexenyl salicylate, Cis-3-hexenyl salicylate]
[1]
  headspace concentration in composition C1 compared to control EdT1: lower
[2]; Table 3, fragrance TAK in C1, 15 min, 32°C
  amount of fragrance ingredient retained on blotter (percentage of the initial amount): 76%
[2]; Table 3, fragrance TAK in C1, 60 min, 32°C
  amount of fragrance ingredient retained on blotter (percentage of the initial amount): 77%
[2]; Table 3, fragrance TAK in C1, 120 min, 32°C
  amount of fragrance ingredient retained on blotter (percentage of the initial amount): 75%
[2]; Table 3, fragrance TAK in C1, 240 min, 32°C
  amount of fragrance ingredient retained on blotter (percentage of the initial amount): 73%
[2]; Table 3, fragrance TAK in C1, 480 min, 32°C
  amount of fragrance ingredient retained on blotter (percentage of the initial amount): 60%
[2]; Table 3, fragrance TAK in EdT1, 15 min, 32°C
  amount of fragrance ingredient retained on blotter (percentage of the initial amount): 96%
[2]; Table 3, fragrance TAK in EdT1, 60 min, 32°C
  amount of fragrance ingredient retained on blotter (percentage of the initial amount): 87%
[2]; Table 3, fragrance TAK in EdT1, 120 min, 32°C
  amount of fragrance ingredient retained on blotter (percentage of the initial amount): 85%
[2]; Table 3, fragrance TAK in EdT1, 240 min, 32°C
  amount of fragrance ingredient retained on blotter (percentage of the initial amount): 80%
[2]; Table 3, fragrance TAK in EdT1, 480 min, 32°C
  amount of fragrance ingredient retained on blotter (percentage of the initial amount): 32%
[2]; Table 3, fragrance TAK in EdT1 or C1, T0, set at 100% (normalisation)
  amount of fragrance ingredient retained on blotter (percentage of the initial amount): 100%
[2]; Table 4, fragrance TAK in C2, 15 min, 32°C
  amount of fragrance ingredient retained on blotter (percentage of the initial amount): 99%
[2]; Table 4, fragrance TAK in C2, 480 min, 32°C
  amount of fragrance ingredient retained on blotter (percentage of the initial amount): 63%
[2]; Table 4, fragrance TAK in EdT1, 15 min, 32°C
  amount of fragrance ingredient retained on blotter (percentage of the initial amount): 84%
[2]; Table 4, fragrance TAK in EdT1, 480 min, 32°C
  amount of fragrance ingredient retained on blotter (percentage of the initial amount): 32%
[2]; Table 4, fragrance TAK in EdT1 or C2, T0, set at 100% (normalisation)
  amount of fragrance ingredient retained on blotter (percentage of the initial amount): 100%
[2]; Table 5, fragrance TAK in C3, 15 min, 32°C
  amount of fragrance ingredient retained on blotter (percentage of the initial amount): 78%
[2]; Table 5, fragrance TAK in C3, 60 min, 32°C
  amount of fragrance ingredient retained on blotter (percentage of the initial amount): 84%
[2]; Table 5, fragrance TAK in C3, 120 min, 32°C
  amount of fragrance ingredient retained on blotter (percentage of the initial amount): 83%
[2]; Table 5, fragrance TAK in C3, 240 min, 32°C
  amount of fragrance ingredient retained on blotter (percentage of the initial amount): 82%
[2]; Table 5, fragrance TAK in C3, 480 min, 32°C
  amount of fragrance ingredient retained on blotter (percentage of the initial amount): 61%
[2]; Table 5, fragrance TAK in C3, 1440 min, 32°C
  amount of fragrance ingredient retained on blotter (percentage of the initial amount): 50%
[2]; Table 5, fragrance TAK in EdT1, 15 min, 32°C
  amount of fragrance ingredient retained on blotter (percentage of the initial amount): 96%
[2]; Table 5, fragrance TAK in EdT1, 60 min, 32°C
  amount of fragrance ingredient retained on blotter (percentage of the initial amount): 87%
[2]; Table 5, fragrance TAK in EdT1, 120 min, 32°C
  amount of fragrance ingredient retained on blotter (percentage of the initial amount): 85%
[2]; Table 5, fragrance TAK in EdT1, 240 min, 32°C
  amount of fragrance ingredient retained on blotter (percentage of the initial amount): 80%
[2]; Table 5, fragrance TAK in EdT1, 480 min, 32°C
  amount of fragrance ingredient retained on blotter (percentage of the initial amount): 32%
[2]; Table 5, fragrance TAK in EdT1, 1440 min, 32°C
  amount of fragrance ingredient retained on blotter (percentage of the initial amount): 14%
[2]; Table 5, fragrance TAK in EdT1 or C3, T0, set at 100% (normalisation)
  amount of fragrance ingredient retained on blotter (percentage of the initial amount): 100%
[2]; Table 6, fragrance TAK in C4, 15 min, 32°C
  amount of fragrance ingredient retained on blotter (percentage of the initial amount): 92%
[2]; Table 6, fragrance TAK in C4, 60 min, 32°C
  amount of fragrance ingredient retained on blotter (percentage of the initial amount): 84%
[2]; Table 6, fragrance TAK in C4, 120 min, 32°C
  amount of fragrance ingredient retained on blotter (percentage of the initial amount): 93%
[2]; Table 6, fragrance TAK in C4, 240 min, 32°C
  amount of fragrance ingredient retained on blotter (percentage of the initial amount): 94%
[2]; Table 6, fragrance TAK in C4, 480 min, 32°C
  amount of fragrance ingredient retained on blotter (percentage of the initial amount): 65%
[2]; Table 6, fragrance TAK in EdT1, 15 min, 32°C
  amount of fragrance ingredient retained on blotter (percentage of the initial amount): 96%
[2]; Table 6, fragrance TAK in EdT1, 60 min, 32°C
  amount of fragrance ingredient retained on blotter (percentage of the initial amount): 87%
[2]; Table 6, fragrance TAK in EdT1, 120 min, 32°C
  amount of fragrance ingredient retained on blotter (percentage of the initial amount): 85%
[2]; Table 6, fragrance TAK in EdT1, 240 min, 32°C
  amount of fragrance ingredient retained on blotter (percentage of the initial amount): 80%
[2]; Table 6, fragrance TAK in EdT1, 480 min, 32°C
  amount of fragrance ingredient retained on blotter (percentage of the initial amount): 32%
[2]; Table 6, fragrance TAK in EdT1 or C4, T0, set at 100% (normalisation)
  amount of fragrance ingredient retained on blotter (percentage of the initial amount): 100%
